Key:
Type in all cases: cell-based
BRAF G466V = biological target: T1, BRAF G466V (Homo sapiens, UniProt P15056, G466V); experiment: BRAF HiBiT degradation assay, C-terminal HiBiT-tagged BRAF G466V overexpressed in HCT-116 BRAF−/− cells (clone 8), Nano-Glo HiBiT Lytic assay
T1 construct: Horizon Discovery (HCT-116 BRAF−/− cells); host or cells: HCT-116 BRAF−/− cells, clone 8, lentiviral transduction
Outline: (§1)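 Luminescence from the lytic HiBiT reagent, read after 10 min at room temperature, measured tagged BRAF remaining in lentivirally transduced HCT-116 BRAF−/− cells. Compounds were tested from 1 μM to 0.01 nM in half-log steps at 0.2% DMSO. DC50 values were fitted at 50% remaining.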

BRAF D594G = biological target: T2, BRAF D594G (Homo sapiens, UniProt P15056, D594G); experiment: BRAF HiBiT degradation assay, C-terminal HiBiT-tagged BRAF D594G overexpressed in HCT-116 BRAF−/− cells (clone 63), Nano-Glo HiBiT Lytic assay
T2 construct: Horizon Discovery (HCT-116 BRAF−/− cells); host or cells: HCT-116 BRAF−/− cells, clone 63, lentiviral transduction
T2 sequence (P15056 whole entry D594G): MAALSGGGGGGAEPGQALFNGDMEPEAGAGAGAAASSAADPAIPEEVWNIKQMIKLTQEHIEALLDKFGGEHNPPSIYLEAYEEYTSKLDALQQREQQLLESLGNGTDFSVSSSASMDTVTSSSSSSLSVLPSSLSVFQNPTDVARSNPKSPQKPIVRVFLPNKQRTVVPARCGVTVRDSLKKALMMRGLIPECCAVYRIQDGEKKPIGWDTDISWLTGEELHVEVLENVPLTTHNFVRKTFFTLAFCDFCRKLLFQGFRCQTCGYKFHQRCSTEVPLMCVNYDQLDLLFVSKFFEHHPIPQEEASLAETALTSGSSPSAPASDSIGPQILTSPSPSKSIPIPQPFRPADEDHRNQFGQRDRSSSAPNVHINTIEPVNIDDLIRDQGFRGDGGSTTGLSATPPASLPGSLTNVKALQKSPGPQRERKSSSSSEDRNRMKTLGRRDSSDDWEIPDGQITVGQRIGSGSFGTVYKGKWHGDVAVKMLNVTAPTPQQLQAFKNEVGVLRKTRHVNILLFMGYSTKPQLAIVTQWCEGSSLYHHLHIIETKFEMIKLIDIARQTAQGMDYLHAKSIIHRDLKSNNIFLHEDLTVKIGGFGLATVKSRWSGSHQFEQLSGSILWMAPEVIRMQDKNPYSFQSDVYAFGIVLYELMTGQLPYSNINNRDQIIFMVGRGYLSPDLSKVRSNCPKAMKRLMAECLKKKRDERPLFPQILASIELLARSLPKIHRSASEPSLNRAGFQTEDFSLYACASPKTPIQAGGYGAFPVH
Outline: as §1

BRAF G469A = biological target: T3, BRAF G469A (Homo sapiens, UniProt P15056, G469A); experiment: BRAF HiBiT degradation assay, C-terminal HiBiT-tagged BRAF G469A overexpressed in HCT-116 BRAF−/− cells (clone 34), Nano-Glo HiBiT Lytic assay
T3 construct: Horizon Discovery (HCT-116 BRAF−/− cells); host or cells: HCT-116 BRAF−/− cells, clone 34, lentiviral transduction
T3 sequence (P15056 whole entry G469A): as the sequence (P15056 whole entry D594G) above, with G469A, G594D counted along it
Outline: as §1

BRAF V600E = biological target: T4, BRAF V600E (Homo sapiens, UniProt P15056, V600E); experiment: BRAF HiBiT degradation assay, C-terminal HiBiT-tagged BRAF V600E A375 cells (clone 1F10), Nano-Glo HiBiT Lytic assay; conditions: for Dmax: A-375
T4 construct: endogenous C-terminal HiBiT fusion tag on BRAF V600E allele; endogenous in cells; host or cells: A375 clone 1F10 (CRISPR-Cas9 knock-in of the HiBiT tag; parental A375 from ATCC)
T4 sequence (P15056 whole entry V600E, the tested form may be a part): as the sequence (P15056 whole entry D594G) above, with G594D, V600E counted along it
Outline: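 Endogenous BRAF V600E-HiBiT A375 (1F10), 10,000 cells/well, 24 h preculture; cpd 11-pt, 1 μM–0.01 nM half-log, n=2, 0.2% DMSO; HiBiT lytic detection 10 min RT; DC50 = fitted conc at Y=50; Obs. Dmax vs DMSO.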

[1] = BRAF G466V, DC50 at 50%: fitted conc. at Y=50
[2] = HCT-116, BRAF G466V, percentage protein degraded at maximal compound effect relative to DMSO
[3] = BRAF D594G, DC50 at 50%: fitted conc. at Y=50
[4] = HCT-116, BRAF D594G, percentage protein degraded at maximal compound effect relative to DMSO
[5] = Class 2, BRAF G469A, DC50 at 50%: fitted conc. at Y=50
[6] = HCT-116, Class 2, BRAF G469A, percentage protein degraded at maximal compound effect relative to DMSO
[7] = A375 (BRAF V600E), DC50 at 50%: fitted conc. at Y=50
[8] = A375 (BRAF V600E), percentage protein degraded at maximal compound effect relative to DMSO
[9] = BRAF G466V (Class 3), HCT-116 BRAF−/− cells, DC50 at 50% degradation
[10] = BRAF G466V (Class 3), HCT-116 BRAF−/− cells, observed Dmax relative to DMSO control
[11] = BRAF D594G (Class 3), HCT-116 BRAF−/− cells, DC50 at 50% degradation
[12] = BRAF D594G (Class 3), HCT-116 BRAF−/− cells, observed Dmax relative to DMSO control
[13] = BRAF G469A (Class 2), HCT-116 BRAF−/− cells, DC50 at 50% degradation
[14] = BRAF G469A (Class 2), HCT-116 BRAF−/− cells, observed Dmax relative to DMSO control
[15] = A375 (BRAF V600E, Class 1), DC50 at 50% degradation
[16] = A375 (BRAF V600E, Class 1), observed Dmax, % protein degraded relative to DMSO control

T1 sequence (P15056 whole entry G466V): as the sequence (P15056 whole entry D594G) above, with G466V, G594D counted along it

Row | SMILES | DC50 (BRAF G466V; [1]) [nM] | Dmax (BRAF G466V; [2]) [%] | DC50 (BRAF D594G; [3]) [nM] | Dmax (BRAF D594G; [4]) [%] | DC50 (BRAF G469A; [5]) [nM] | Dmax (BRAF G469A; [6]) [%] | DC50 (BRAF V600E; [7]) [nM] | Dmax (BRAF V600E; [8]) [%] | DC50 (BRAF G466V; [9]) [nM] | Dmax (BRAF G466V; [10]) [%] | DC50 (BRAF D594G; [11]) [nM] | Dmax (BRAF D594G; [12]) [%] | DC50 (BRAF G469A; [13]) [nM] | Dmax (BRAF G469A; [14]) [%] | DC50 (BRAF V600E; [15]) [nM] | Dmax (BRAF V600E; [16]) [%]
1 | CCCS(=O)(=O)Nc1cccc(-c2cn(-c3ccc(N4CCN(CC5CCN(c6ccc(C7CCC(=O)NC7=O)cc6)CC5)CC4)cc3)nc2-c2ccncc2)c1F (racemic) [Compound 21, Rac-N-{3-[1-(4-{4-[(1-{4-[(3R)-2,6-dioxopiperidin-3-yl]phenyl}piperidin-4-yl)methyl]piperazin-1-yl}phenyl)-3-(pyridin-4-yl)-1H-pyrazol-4-yl]-2-fluorophenyl}propane-1-sulfonamide] | 10 to 50 | 30 to 70 | > 500 | 30 to 70 | > 500 | 30 to 70 | 10 to 50 | > 70 |  |  |  |  |  |  |  | 
2 | CCCS(=O)(=O)Nc1cccc(-c2nc(C3CCN(C(=O)C4CCN(CC5CCN(c6ccc(C7CCC(=O)NC7=O)cn6)CC5)CC4)CC3)sc2-c2ccncn2)c1F (racemic) [Compound 221, Rac-N-{3-[2-(1-{1-[(1-{5-[(3R)-2,6-dioxopiperidin-3-yl]pyridin-2-yl}piperidin-4-yl)methyl]piperidine-4-carbonyl}piperidin-4-yl)-5-(pyrimidin-4-yl)-1,3-thiazol-4-yl]-2-fluorophenyl}propane-1-sulfonamide] | > 500 | 30 to 70 | > 500 | 30 to 70 | > 500 | 30 to 70 | 10 to 50 | > 70 |  |  |  |  |  |  |  | 
3 | O=C1CCC(c2ccc(N3CCC(CN4CCN(c5ccc(-n6cc(-c7cc(Cl)cc(NS(=O)(=O)N8CC[C@@H](F)C8)c7F)c(-c7ccncc7)n6)nc5)CC4)CC3)nc2)C(=O)N1 (mixture of isomers) [Compound 296, (3R)—N-{5-chloro-3-[1-(5-{4-[(1-{5-[(3RS)-2,6-dioxopiperidin-3-yl]pyridin-2-yl}piperidin-4-yl)methyl]piperazin-1-yl}pyridin-2-yl)-3-(pyridin-4-yl)-1H-pyrazol-4-yl]-2-fluorophenyl}-3-fluoropyrrolidine-1-sulfonamide] |  |  |  |  |  |  |  |  | < 10 | > 70 | < 10 | > 70 | < 10 | > 70 | < 10 | > 70
4 | CCC(C)S(=O)(=O)Nc1cc(Cl)cc(-c2cn(-c3ccc(N4CCN(CC5CCN(c6ccc(N7CCC(=O)NC7=O)cc6)CC5)CC4)cc3)nc2-c2ccncc2)c1F (racemic) [Compound 328, Rac-(2R)—N-[5-chloro-3-(1-{4-[4-({1-[4-(2,4-dioxo-1,3-diazinan-1-yl)phenyl]piperidin-4-yl}methyl)piperazin-1-yl]phenyl}-3-(pyridin-4-yl)-1H-pyrazol-4-yl)-2-fluorophenyl]butane-2-sulfonamide] |  |  |  |  |  |  |  |  | 10 to 50 | > 70 | < 10 | 30 to 70 | 50 to 500 | 30 to 70 | < 10 | > 70
5 | CCCS(=O)(=O)Nc1cccc(-c2nc(C(C)(C)C)sc2-c2ccnc(Nc3cnn(CC4CCN(C(=O)CN5CCC(c6ccc(NC7CCC(=O)NC7=O)cc6)CC5)CC4)c3)n2)c1F (racemic) [Compound 116, Rac-N-(3-{2-tert-butyl-5-[2-({1-[(1-{2-[4-(4-{[(3R)-2,6-dioxopiperidin-3-yl]amino}phenyl)piperidin-1-yl]acetyl}piperidin-4-yl)methyl]-1H-pyrazol-4-yl}amino)pyrimidin-4-yl]-1,3-thiazol-4-yl}-2-fluorophenyl)propane-1-sulfonamide] | > 500 | 30 to 70 | > 500 | < 30 | > 500 | < 30 | 10 to 50 | > 70 |  |  |  |  |  |  |  | 
6 | O=C1CCC(c2ccc(N3CCC(CN4CCN(c5ccc(-n6cc(-c7cc(Cl)cc(NS(=O)(=O)N8CC(F)C8)c7F)c(-c7ccncc7)n6)c(F)c5)CC4)CC3)nc2)C(=O)N1 (racemic) [Compound 337, Rac-N-{5-chloro-3-[1-(4-{4-[(1-{5-[(3R)-2,6-dioxopiperidin-3-yl]pyridin-2-yl}piperidin-4-yl)methyl]piperazin-1-yl}-2-fluorophenyl)-3-(pyridin-4-yl)-1H-pyrazol-4-yl]-2-fluorophenyl}-3-fluoroazetidine-1-sulfonamide] |  |  |  |  |  |  |  |  | < 10 | > 70 | < 10 | 30 to 70 | 10 to 50 | 30 to 70 | < 10 | > 70
7 | O=C1CCN(c2ccc(N3CCC(CN4CCN(c5ccc(-n6cc(-c7cc(Cl)cc(NS(=O)(=O)N8CC[C@@H](F)C8)c7F)c(-c7ccncc7)n6)cc5)CC4)CC3)cc2)C(=O)N1 [Compound 292, (3R)—N-[5-chloro-3-(1-{4-[4-({1-[4-(2,4-dioxo-1,3-diazinan-1-yl)phenyl]piperidin-4-yl}methyl)piperazin-1-yl]phenyl}-3-(pyridin-4-yl)-1H-pyrazol-4-yl)-2-fluorophenyl]-3-fluoropyrrolidine-1-sulfonamide] |  |  |  |  |  |  |  |  | < 10 | 30 to 70 | < 10 | 30 to 70 | 50 to 500 | 30 to 70 | < 10 | > 70
8 | CCN(C)S(=O)(=O)Nc1cc(Cl)cc(-c2cn(-c3ccc(N4CCN(CC5CCN(c6ccc(C7CCC(=O)NC7=O)cn6)CC5)CC4)cc3)nc2-c2ccncc2)c1F (racemic) [Compound 308, Rac-(3R)-3-(6-{4-[(4-{4-[4-(5-chloro-3-{[ethyl(methyl)sulfamoyl]amino}-2-fluorophenyl)-3-(pyridin-4-yl)-1H-pyrazol-1-yl]phenyl}piperazin-1-yl)methyl]piperidin-1-yl}pyridin-3-yl)piperidine-2,6-dione] |  |  |  |  |  |  |  |  | < 10 | > 70 | < 10 | > 70 | 10 to 50 | > 70 | < 10 | > 70
9 | CCCS(=O)(=O)Nc1cccc(-c2cn(-c3ccc(N4CCN(CC5CCN(c6ccc(C7CCC(=O)NC7=O)c(F)c6)CC5)CC4)cc3)nc2-c2ccncc2)c1F (racemic) [Compound 19, Rac-N-{3-[1-(4-{4-[(1-{4-[(3R)-2,6-dioxopiperidin-3-yl]-3-fluorophenyl}piperidin-4-yl)methyl]piperazin-1-yl}phenyl)-3-(pyridin-4-yl)-1H-pyrazol-4-yl]-2-fluorophenyl}propane-1-sulfonamide] | 10 to 50 | 30 to 70 | 10 to 50 | 30 to 70 | > 500 | 30 to 70 | 10 to 50 | > 70 |  |  |  |  |  |  |  | 
10 | CCN(C)S(=O)(=O)Nc1cc(Cl)cc(-c2cn(-c3ccc(N4CCN(CC5CCN(c6ccc([C@H]7CCC(=O)NC7=O)cc6)CC5)CC4)cc3)nc2-c2ccncc2)c1F [Compound 306, (3R)-3-(4-{4-[(4-{4-[4-(5-chloro-3-{[ethyl(methyl)sulfamoyl]amino}-2-fluorophenyl)-3-(pyridin-4-yl)-1H-pyrazol-1-yl]phenyl}piperazin-1-yl)methyl]piperidin-1-yl}phenyl)piperidine-2,6-dione] |  |  |  |  |  |  |  |  | < 10 | > 70 | < 10 | 30 to 70 | 10 to 50 | 30 to 70 | < 10 | > 70
11 | CCCS(=O)(=O)Nc1cccc(-c2nc(C(C)(C)C)sc2-c2ccnc(Nc3ccc(N4CCN(C(=O)[C@@H]5CCN(c6ccc([C@H]7CCC(=O)NC7=O)cn6)C5)CC4)c(F)c3)n2)c1F (racemic) [Compound 49, Rac-N-(3-(2-(tert-butyl)-5-(2-((4-(4-((R)-1-(5-((R)-2,6-dioxopiperidin-3-yl)pyridin-2-yl)pyrrolidine-3-carbonyl)piperazin-1-yl)-3-fluorophenyl)amino)pyrimidin-4-yl)thiazol-4-yl)-2-fluorophenyl)propane-1-sulfonamide] | > 500 | 30 to 70 | > 500 | 30 to 70 | > 500 | 30 to 70 | < 10 | > 70 |  |  |  |  |  |  |  | 
